In patent US11780845B2 (Relay Therapeutics, Inc., priority 2019, dated 2023):

Legend:
FGFR2 = FGFR2 (Homo sapiens (Human), UniProt P21802); experiment: FGFR2 Biochemical Caliper Assay
Method: Compounds of the present invention were also tested in a FGFR2 Biochemical Caliper Assay. Compounds were prepared in 10 mM DMSO solution and serially diluted into 11 concentrations by 3-fold dilution. […] 5 uL of ATP solution (100 uM) was added to start the reaction and the plate was incubated for 90 minutes, then 70 uL of stopping buffer (0.5M EDTA) was added to terminate the reaction. Each well was analyzed using EZ reader.

SNU16 cells = experiment: SNU16 Cancer Cell Line Proliferation Assay; format: cell-based; details: Homo sapiens; SNU-16 cells
In short: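 SNU16 cells were seeded, held 24 h at 37 degrees, then dosed with an 11-point 3-fold dilution series prepared from a 10 mM DMSO stock. After 96 h incubation, viability was read by CellTiter Glo luminescence.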

Chain of FGFR2 (P21802 22-821): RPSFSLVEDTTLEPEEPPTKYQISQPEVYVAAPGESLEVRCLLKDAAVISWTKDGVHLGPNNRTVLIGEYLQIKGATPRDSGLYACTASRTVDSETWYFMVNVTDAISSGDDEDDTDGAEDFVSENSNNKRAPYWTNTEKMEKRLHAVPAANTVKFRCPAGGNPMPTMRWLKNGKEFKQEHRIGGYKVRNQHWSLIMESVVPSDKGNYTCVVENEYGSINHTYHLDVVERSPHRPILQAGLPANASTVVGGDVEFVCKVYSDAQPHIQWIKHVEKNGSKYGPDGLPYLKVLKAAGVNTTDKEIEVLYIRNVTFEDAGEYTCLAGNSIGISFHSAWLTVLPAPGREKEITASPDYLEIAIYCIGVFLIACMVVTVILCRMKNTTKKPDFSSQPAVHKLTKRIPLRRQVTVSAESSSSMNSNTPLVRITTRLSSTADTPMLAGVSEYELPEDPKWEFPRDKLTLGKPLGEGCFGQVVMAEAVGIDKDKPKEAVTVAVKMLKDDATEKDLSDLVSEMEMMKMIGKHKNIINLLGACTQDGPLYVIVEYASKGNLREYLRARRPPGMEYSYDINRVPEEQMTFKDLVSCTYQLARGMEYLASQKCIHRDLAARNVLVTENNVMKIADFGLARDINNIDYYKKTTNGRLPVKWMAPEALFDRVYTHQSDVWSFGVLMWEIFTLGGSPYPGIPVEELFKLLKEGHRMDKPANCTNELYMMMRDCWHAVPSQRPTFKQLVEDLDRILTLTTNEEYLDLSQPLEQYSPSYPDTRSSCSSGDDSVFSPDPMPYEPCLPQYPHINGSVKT

IC50 (FGFR2) [nM] | IC50 (SNU16 cells) [nM] | Compound
< 100 | ≤ 100 | C=CC(=O)N1CCC(n2cc(-c3c(-c4ccc(Oc5cccc(OC)n5)cc4)c4c(N)ncnc4n3C)cn2)CC1 [Example 650]
100 to 250 | ≤ 100 | C=CC(=O)N1CCC(c2nnc(-c3c(-c4ccc(Oc5cccc(C)n5)cc4)c4c(N)ncnc4n3C)o2)CC1 [Example 651]
100 to 250 | 1000 to 100000 | C=C(C)C(=O)N1CCC(n2cc(-c3c(-c4ccc(Oc5ccccc5)cc4)c4c(N)ncnc4n3C)cn2)CC1 [Example 652]
250 to 1000 | 1000 to 100000 | C=C(C)C(=O)N1CCC(n2cc(-c3c(-c4ccc(OC)cc4)c4c(N)ncnc4n3C)cn2)CC1 [Example 653]
< 100 | ≤ 100 | C=CC(=O)N1CC=C(c2c(-c3ccc(OC)cc3)c3c(N)ncnc3n2C)CC1 [Example 654]
250 to 1000 | 1000 to 100000 | C/C(=C\CN(C)C)C(=O)N1CCC(n2cc(-c3c(-c4ccc(Oc5cccc(C)n5)cc4)c4c(N)ncnc4n3C)cn2)CC1 [Example 655]
< 100 | ≤ 100 | C=CC(=O)N1CC=C(c2c(-c3ccc(Oc4cccc(C)n4)cc3)c3c(N)ncnc3n2C)CC1 [Example 656]
1000 to 100000 | 1000 to 100000 | C=CC(=O)N1CCC=C(c2c(-c3ccc(Oc4cccc(C)n4)c(OC)c3)c3c(N)ncnc3n2C)C1 [Example 657]
< 100 | ≤ 100 | C=CC(=O)N1CCC(c2nc(-c3c(-c4ccc(Oc5cccc(C)n5)cc4)c4c(N)ncnc4n3C)no2)CC1 [Example 660]
1000 to 100000 | 1000 to 100000 | C=CC(=O)N1CCCC(c2c(-c3ccc(Oc4cccc(C)n4)c(OC)c3)c3c(N)ncnc3n2C)C1 (stereo not drawn) [Example 661]
100 to 250 | 250 to 1000 | C=CC(=O)NC1CCC(c2c(-c3ccc(Oc4cccc(C)n4)cc3)c3c(N)ncnc3n2C)CC1 (stereo not drawn) [Example 662]
250 to 1000 | 250 to 1000 | C=CC(=O)N1CCCC(c2c(-c3ccc(Oc4cccc(C)n4)cc3)c3c(N)ncnc3n2C)C1 (stereo not drawn) [Example 663]
100 to 250 | 100 to 250 | C=CC(=O)N1CCC(n2cc(-c3c(-c4ccc(Oc5ccccn5)c(OC)c4)c4c(N)ncnc4n3C)cn2)CC1C (stereo not drawn) [Example 664]
100 to 250 | 250 to 1000 | C=CC(=O)N1CCC=C(c2c(-c3ccc(Oc4cccc(C)n4)cc3)c3c(N)ncnc3n2C)C1 [Example 665]
< 100 | ≤ 100 | C=CC(=O)N1CC=C(c2c(-c3ccc(Oc4cccc(C)n4)cc3)c3c(N)ncnc3n2C)C1 [Example 666]
100 to 250 | 100 to 250 | C=CC(=O)N1CC=C(c2c(-c3ccc(Oc4cccc(C)n4)c(OC)c3)c3c(N)ncnc3n2C)C1 [Example 667]
< 100 | 1000 to 100000 | C/C=C(\C#N)C(=O)N1CCC(n2cc(-c3c(-c4ccc(Oc5cccc(C)n5)cc4)c4c(N)ncnc4n3C)cn2)CC1 [Example 668]
250 to 1000 | 250 to 1000 | C=CC(=O)N1CCC(n2cc(-c3c(-c4ccc(Oc5ccccn5)c(OC)c4)c4c(N)ncnc4n3C)cn2)CC1 [Example 669]
250 to 1000 | 250 to 1000 | C=CC(=O)N1CCC(c2c(-c3ccc(Oc4cccc(C)n4)c(OC)c3)c3c(N)ncnc3n2C)C1 (stereo not drawn) [Example 670]
250 to 1000 | 1000 to 100000 | C/C(=C\CN(C)C)C(=O)N1CC(n2cc(-c3c(-c4ccc(Oc5cccc(C)n5)cc4)c4c(N)ncnc4n3C)cn2)C1 [Example 671]
100 to 250 | 250 to 1000 | C=CC(=O)N1CCC(n2cc(-c3c(-c4ccc(Oc5cccc(C)c5)c(OC)c4)c4c(N)ncnc4n3C)cn2)CC1 [Example 672]
< 100 | ≤ 100 | C=CC(=O)N1CCC(n2ncc(-c3c(-c4ccc(Oc5cccc(C)n5)c(OC)c4)c4c(N)ncnc4n3C)c2C)CC1 [Example 673]
< 100 | ≤ 100 | C=CC(=O)N1CC=C(c2c(-c3ccc(Oc4ncccn4)c(OC)c3)c3c(N)ncnc3n2C)CC1 [Example 674]
250 to 1000 | 1000 to 100000 | C=CC(=O)N1CCC(c2c(-c3ccc(Oc4ccccn4)c(OC)c3)c3c(N)ncnc3n2C)C1 (stereo not drawn) [Example 675]
